Laboratory results reported in ChEMBL document CHEMBL3044925, “Synthesis of piperazino and morpholino derivatives of aryloxypropane with potential analgesic and possible antimigraine activities” (Med Chem Res, 2011).

Columns and labels:
[1] = system: Mus musculus; experiment: Neurotoxicity against Mus musculus MFI (mouse) assessed as hair erection at 180 mg/kg, ip; assay type: toxicity, organism-based; parameters: dose 180 mg/kg, route intraperitoneal; conditions: in vivo
[2] = system: Mus musculus; experiment: Neurotoxicity against Mus musculus MFI (mouse) assessed as excitation at 120 mg/kg, ip; assay type: toxicity, organism-based; parameters: dose 120 mg/kg, route intraperitoneal; conditions: in vivo
[3] = system: Mus musculus; experiment: Neurotoxicity against Mus musculus MFI (mouse) assessed as muscle twitching at 120 mg/kg, ip; assay type: toxicity, organism-based, Muscle tissue; parameters: dose 120 mg/kg, route intraperitoneal; conditions: in vivo
[4] = system: Mus musculus; experiment: Neurotoxicity against Mus musculus MFI (mouse) assessed as irritability at 180 mg/kg, ip; assay type: toxicity, organism-based; parameters: dose 180 mg/kg, route intraperitoneal; conditions: in vivo
[5] = system: Mus musculus; experiment: Neurotoxicity against Mus musculus MFI (mouse) assessed as excitation at 60 mg/kg, ip; assay type: toxicity, organism-based; parameters: dose 60 mg/kg, route intraperitoneal; conditions: in vivo
[6] = system: Mus musculus; experiment: Neurotoxicity against Mus musculus MFI (mouse) assessed as skeletal muscle incoordination at 120 mg/kg, ip; assay type: toxicity, organism-based, Muscle tissue; parameters: dose 120 mg/kg, route intraperitoneal; conditions: in vivo
[7] = system: Mus musculus; experiment: Neurotoxicity against Mus musculus MFI (mouse) assessed as tremors at 120 mg/kg, ip; assay type: toxicity, organism-based; parameters: dose 120 mg/kg, route intraperitoneal; conditions: in vivo
[8] = system: Mus musculus; experiment: Neurotoxicity against Mus musculus MFI (mouse) assessed as tail erection at 60 mg/kg, ip; assay type: toxicity, organism-based; parameters: dose 60 mg/kg, route intraperitoneal; conditions: in vivo
[9] = system: Mus musculus; experiment: Neurotoxicity against Mus musculus MFI (mouse) assessed as eye protrusion at 60 mg/kg, ip; assay type: toxicity, organism-based; parameters: dose 60 mg/kg, route intraperitoneal; conditions: in vivo
[10] = system: Mus musculus; experiment: Neurotoxicity against Mus musculus MFI (mouse) assessed as irritability at 120 mg/kg, ip; assay type: toxicity, organism-based; parameters: dose 120 mg/kg, route intraperitoneal; conditions: in vivo
[11] = system: Mus musculus; experiment: Neurotoxicity against Mus musculus MFI (mouse) assessed as eye protrusion at 120 mg/kg, ip; assay type: toxicity, organism-based; parameters: dose 120 mg/kg, route intraperitoneal; conditions: in vivo
[12] = system: Mus musculus; experiment: Neurotoxicity in ip dosed Mus musculus MFI (mouse); assay type: toxicity, organism-based; conditions: in vivo
[13] = system: Mus musculus; experiment: […] activity in ip dosed Mus musculus MFI (mouse) assessed as inhibition of PBQ-induced writhing administered 1.5 hr prior to PBQ-challenge measured after 10 min; assay type: functional; conditions: read-out: MED
[14] = system: Mus musculus; experiment: Neurotoxicity against Mus musculus MFI (mouse) assessed as effect on respiration at 60 mg/kg, ip; assay type: toxicity, organism-based; parameters: dose 60 mg/kg, route intraperitoneal; conditions: in vivo
[15] = system: Mus musculus; experiment: Neurotoxicity against Mus musculus MFI (mouse) assessed as epilepsy at 180 mg/kg, ip; assay type: toxicity, organism-based; parameters: dose 180 mg/kg, route intraperitoneal; conditions: in vivo
[16] = system: Mus musculus; experiment: […] activity in Mus musculus MFI (mouse) assessed as inhibition of PBQ-induced writhing at 60 mg/kg, ip administered 1.5 hr prior to PBQ-challenge measured after 10 min relative to aspirin; assay type: functional; conditions: route intraperitoneal
[17] = system: Mus musculus; experiment: Neurotoxicity against Mus musculus MFI (mouse) assessed as eye protrusion at 180 mg/kg, ip; assay type: toxicity, organism-based; parameters: dose 180 mg/kg, route intraperitoneal; conditions: in vivo
[18] = system: Mus musculus; experiment: Neurotoxicity against Mus musculus MFI (mouse) assessed as hair erection at 60 mg/kg, ip; assay type: toxicity, organism-based; parameters: dose 60 mg/kg, route intraperitoneal; conditions: in vivo
[19] = system: Mus musculus; experiment: Neurotoxicity against Mus musculus MFI (mouse) assessed as tail erection at 120 mg/kg, ip; assay type: toxicity, organism-based; parameters: dose 120 mg/kg, route intraperitoneal; conditions: in vivo
[20] = system: Mus musculus; experiment: Neurotoxicity against Mus musculus MFI (mouse) assessed as effect on respiration at 180 mg/kg, ip; assay type: toxicity, organism-based; parameters: dose 180 mg/kg, route intraperitoneal; conditions: in vivo
[21] = system: Mus musculus; experiment: Neurotoxicity against Mus musculus MFI (mouse) assessed as epilepsy at 60 mg/kg, ip; assay type: toxicity, organism-based; parameters: dose 60 mg/kg, route intraperitoneal; conditions: in vivo
[22] = system: Mus musculus; experiment: Neurotoxicity against Mus musculus MFI (mouse) assessed as skeletal muscle incoordination at 60 mg/kg, ip; assay type: toxicity, organism-based, Muscle tissue; parameters: dose 60 mg/kg, route intraperitoneal; conditions: in vivo
[23] = system: Mus musculus; experiment: Neurotoxicity against Mus musculus MFI (mouse) assessed as muscle twitching at 180 mg/kg, ip; assay type: toxicity, organism-based, Muscle tissue; parameters: dose 180 mg/kg, route intraperitoneal; conditions: in vivo
[24] = system: Mus musculus; experiment: Neurotoxicity against Mus musculus MFI (mouse) assessed as epilepsy at 120 mg/kg, ip; assay type: toxicity, organism-based; parameters: dose 120 mg/kg, route intraperitoneal; conditions: in vivo
[25] = system: Mus musculus; experiment: Neurotoxicity against Mus musculus MFI (mouse) assessed as tremors at 60 mg/kg, ip; assay type: toxicity, organism-based; parameters: dose 60 mg/kg, route intraperitoneal; conditions: in vivo
[26] = system: Mus musculus; experiment: Neurotoxicity against Mus musculus MFI (mouse) assessed as muscle twitching at 60 mg/kg, ip; assay type: toxicity, organism-based, Muscle tissue; parameters: dose 60 mg/kg, route intraperitoneal; conditions: in vivo
[27] = system: Mus musculus; experiment: Neurotoxicity against Mus musculus MFI (mouse) assessed as tail erection at 180 mg/kg, ip; assay type: toxicity, organism-based; parameters: dose 180 mg/kg, route intraperitoneal; conditions: in vivo
[28] = system: Mus musculus; experiment: Neurotoxicity against Mus musculus MFI (mouse) assessed as effect on respiration at 120 mg/kg, ip; assay type: toxicity, organism-based; parameters: dose 120 mg/kg, route intraperitoneal; conditions: in vivo
[29] = system: Mus musculus; experiment: Neurotoxicity against Mus musculus MFI (mouse) assessed as skeletal muscle incoordination at 180 mg/kg, ip; assay type: toxicity, organism-based, Muscle tissue; parameters: dose 180 mg/kg, route intraperitoneal; conditions: in vivo
[30] = system: Mus musculus; experiment: Neurotoxicity against Mus musculus MFI (mouse) assessed as hair erection at 120 mg/kg, ip; assay type: toxicity, organism-based; parameters: dose 120 mg/kg, route intraperitoneal; conditions: in vivo
[31] = system: Mus musculus; experiment: Neurotoxicity against Mus musculus MFI (mouse) assessed as irritability at 60 mg/kg, ip; assay type: toxicity, organism-based; parameters: dose 60 mg/kg, route intraperitoneal; conditions: in vivo
[32] = system: Mus musculus; experiment: Neurotoxicity against Mus musculus MFI (mouse) assessed as excitation at 180 mg/kg, ip; assay type: toxicity, organism-based; parameters: dose 180 mg/kg, route intraperitoneal; conditions: in vivo
[33] = system: Mus musculus; experiment: […] activity in Mus musculus MFI (mouse) assessed as inhibition of PBQ-induced writhing at 180 mg/kg, ip administered 1.5 hr prior to PBQ-challenge measured after 10 min relative to aspirin; assay type: functional; conditions: route intraperitoneal
[34] = system: Mus musculus; experiment: […] activity in Mus musculus MFI (mouse) assessed as inhibition of PBQ-induced writhing at 120 mg/kg, ip administered 1.5 hr prior to PBQ-challenge measured after 10 min relative to aspirin; assay type: functional; conditions: route intraperitoneal
[35] = system: Mus musculus; experiment: Neurotoxicity against Mus musculus MFI (mouse) assessed as tremors at 180 mg/kg, ip; assay type: toxicity, organism-based; parameters: dose 180 mg/kg, route intraperitoneal; conditions: in vivo
[36] = system: Mus musculus; experiment: […] activity in Mus musculus MFI (mouse) assessed as inhibition of PBQ-induced writhing at 100 mg/kg, ip administered 1.5 hr prior to PBQ-challenge measured after 10 min relative to control; assay type: functional; conditions: route intraperitoneal

CC(COc1cccc(Cl)c1Cl)N1CCN(C)CC1.O=C(O)C(=O)O (racemic)
120 mg/kg: MTC [12]
100%: inhibition in vivo at 180 mg/kg [33]
37.5%: inhibition in vivo at 60 mg/kg [16]
Toxic: Activity [1] | Activity [2] | Activity [3] | Activity [4] | Activity [5] | Activity [6] | Activity [7] | Activity [8] | Activity [9] | Activity [10] | Activity [11] | Activity [14] | Activity [15] | Activity [17] | Activity [18] | Activity [19] | Activity [20] | Activity [21] | Activity [22] | Activity [23] | Activity [24] | Activity [25] | Activity [26] | Activity [27] | Activity [28] | Activity [29] | Activity [30] | Activity [31] | Activity [32] | Activity [35]
60 mg/kg: minimal effective dose [13]
75%: inhibition in vivo at 120 mg/kg [34]

CC(=O)Oc1ccccc1C(=O)O [ASPIRIN]
100%: inhibition in vivo at 100 mg/kg [36]
